Test results as given in patent US9221765B2, “Inhibition and dispersion of bacterial biofilms with benzimidazole derivatives” (North Carolina State University, priority 2009, dated 2015).
Structures can show the parent of a compound that is named as a salt.

What was measured:
MRSA = test: Inhibition of MRSA biofilm formation (crystal violet); type: cell-based, Staphylococcus aureus; conditions: Staphylococcus aureus
Method: (§1) A dose-response study was then initiated in which both the IC50 and EC50 value of each compound towards the bacterial strains were determined (Table 1). Here, IC50 is defined as the concentration of compound that inhibits 50% biofilm development while EC50 is defined as the concentration of compound that disperses 50% of a pre-formed biofilm.
(§2) Procedure to Determine the Inhibitory Effect of Test Compounds on E. faecium, MRSA, S. epidermidis, PAO1 and MDRAB Biofilm Formation:
(§3) Inhibition assays were performed by taking an overnight culture of bacterial strain and subculturing it at an OD600 of 0.01 into the necessary media (brain heart infusion for E. faecium, tryptic soy broth with a 0.5% glucose supplement (TSBG) for MRSA, Luria-Bertani (LB) media for MDRAB, Luria-Bertani media without NaCl (LBNS) for PAO1 and tryptic soy broth with a 0.5% glucose supplement and a 3.0% NaCl supplement (TGN) for S. epidermidis. Stock solutions of predetermined concentrations of the test compound were then made in the necessary media. These stock solutions were aliquoted (100 μL) into the wells of the 96-well PVC microtiter plate. Sample plates were then wrapped in GLAD Press n′ Seal® followed by an incubation under stationary conditions for 24 h at 37° C. After incubation, the media was discarded from the wells and the plates were washed thoroughly with water. Plates were then stained with 100 μL of 0.1% solution of crystal violet (CV) and then incubated at ambient temperature for 30 min. Plates were washed with water again and the remaining stain was solubilized with 200 μL of 95% ethanol. A sample of 125 μL of solubilized CV stain from each well was transferred to the corresponding wells of a polystyrene microtiter dish. Biofilm inhibition was quantitated by measuring the OD540 of each well in which a negative control lane wherein no biofilm was formed served as a background and was subtracted out.
as §3, with “2-(2-amino-1H-benzo[d]imidazol-6-ylcarbamoyl)-3,4,5,6-tetrachlorobenzoic acid hydrochloride” for “test compound”, “media. Samples were then doped with 10.0 μM FeSO4 with samples with no test compound to examine effects of 10.0 μM FeSO4 on biofilm formation.” for “media.”

S. epidermidis = test: Inhibition of S. epidermidis biofilm formation (crystal violet); type: cell-based, Staphylococcus epidermidis; conditions: Staphylococcus epidermidis
Method: as §1, §2, §3
as §3, with “2-(2-amino-1H-benzo[d]imidazol-6-ylcarbamoyl)-3,4,5,6-tetrachlorobenzoic acid hydrochloride” for “test compound”, “media. Samples were then doped with 10.0 μM FeSO4 with samples with no test compound to examine effects of 10.0 μM FeSO4 on biofilm formation.” for “media.”

[1] = Divalent zinc binding via 1H NMR spectroscopy; conditions: 0, 0.5, 1.0 equivalents ZnCl2; DMSO
Method: Given this Zn(II)-dependence, the ability of 3 to bind zinc directly was determined to ascertain if the mechanism was potentially occurring via a Zn(II)-binding mechanism. To answer this question, an ^1H NMR binding experiment was performed in which the chemical shifts of 3 were measured in the presence of 0 equivalents, 0.5 equivalents, and 1.0 equivalents ZnCl2. […] As a control, the same experiment was performed with FeSO4.
Procedure to Determine the Divalent Zinc Binding Effects of Test Compounds via ^1H NMR Spectroscopy:
^1H NMR Spectra were obtained of the test compounds in DMSO on a 400 MHz NMR in the absence and in the presence of one equivalent of ZnCl2. 2-(2-amino-1H-benzo[d]imidazol-5-ylcarbamoyl)-3,4,5,6-tetrachlorobenzoic acid hydrochloride was tested at a 228 mM. 2,3,4,5-tetrachloro-6-(phenylcarbamoyl)benzoic acid was tested at 275 mM. 1H-benzo[d]imidazol-2-amine hydrochloride was tested at 649 mM.

**Q.** Which IC50 (MRSA) does the source give for `Nc1nc2ccc(NC(=O)c3c(Cl)c(Cl)c(Cl)c(Cl)c3C(=O)O)cc2[nH]1` [Compound 3, 2-(2-amino-1H-benzo[d]imidazol-6-ylcarbamoyl)-3,4,5,6-tetrachlorobenzoic acid hydrochloride] here?
**A.** Its IC50 is 0.86 µM.

**Q.** What about the IC50 (MRSA; concentration that inhibits 50% biofilm development) of the same compound?
**A.** Its IC50 is 0.89 ± 0.01 µM.

**Q.** And the IC50 (S. epidermidis)?
**A.** Its IC50 is 0.57 µM.

**Q.** What about the “zinc binding, change of 1H NMR signals” value [1] of the same compound?
**A.** Its value is “directly binding ZnCl2”.
